Data on 20 compounds can be found in patent US12312332B2 (Merck Sharp & Dohme LLC., priority 2019, dated 2025).

A word on the EC50: it is the concentration giving half of the maximal effect.

This assay has as its target T1, human OX2R (Homo sapiens, UniProt O43614).
T1 construct: expressed in transfected cells; host or cells: Chinese hamster ovary (CHO) cells, kept under G418 selection
T1 sequence (O43614 1-444): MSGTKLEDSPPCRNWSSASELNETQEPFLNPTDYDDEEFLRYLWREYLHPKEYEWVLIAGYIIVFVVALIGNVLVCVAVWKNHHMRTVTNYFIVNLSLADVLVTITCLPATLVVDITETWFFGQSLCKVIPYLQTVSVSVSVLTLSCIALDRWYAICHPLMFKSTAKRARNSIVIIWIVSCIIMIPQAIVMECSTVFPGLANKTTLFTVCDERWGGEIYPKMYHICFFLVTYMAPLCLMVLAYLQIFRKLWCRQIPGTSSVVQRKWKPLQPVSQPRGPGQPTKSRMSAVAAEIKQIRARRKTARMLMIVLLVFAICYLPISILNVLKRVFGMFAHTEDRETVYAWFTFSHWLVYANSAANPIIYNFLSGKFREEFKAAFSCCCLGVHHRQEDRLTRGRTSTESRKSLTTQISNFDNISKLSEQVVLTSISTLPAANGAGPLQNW
As to the kind of experiment: IPOne (IP-One) orexin receptor agonist assay in CHO cells expressing human OX2R. The assay is classed as cell-based. The settings on record: for EC50: CHO cells expressing human OX2R, IP-One detection, 2 hours incubation, four parameter logistic fit, read-out: OX2R Potency, EC50; for % max agonist effect (Emax): human OX2R, percentage of sample raw value/mean max effect (reference compound at 1 uM with 100% activity). From the text: The utility of the compounds in accordance with the present invention as orexin receptor OX1R and/or OX2R agonists may be readily determined without undue experimentation by methodology well known in the art. Both the OX1R and/or OX2R G-coupled protein receptors (GPCRs) couple through the Gaq signaling pathway, which ultimately promotes calcium mobilization via inositol triphosphate (IP3) production. […] The utility of the compounds in accordance with the present invention as orexin receptor OX1R and/or OX2R agonists may be determined utilizing this assay.
In a typical experiment, the OX1 and OX2 receptor agonist activity is determined in accordance with the following general experimental method. Chinese hamster ovary (CHO) cells expressing human OX1R and/or the human OX2R were grown in Iscove's modified DMEM containing glutaMAX™, 1% G418, 100 U/mL penicillin, 100 μg/mL streptomycin and 10% heat-inactivated qualified fetal bovine serum (FBS). […] During this incubation, IP-one detection reagents were prepared (38:1:1 lysis buffer:D2:AB-cryptate reagents).
For each compound, data were fit to a four parameter logistic fit (ActivityBase software) and the EC50 was reported as the inflection point of the resulting curve. Percent effect for each test compound was determined as the percentage of sample raw value/mean max effect, where the mean max effect was derived from the mean raw value of 32 control wells per assay plate (using Orexin A (cat #003-30) at 1 μM for human OX1R and a reference compound at 1 uM with 100% activity previously established by comparison to Orexin A for human OX2R). The intrinsic orexin receptor agonist activity of a compound which may be used in the present invention may be determined by these assays.

In the case of `CS(=O)(=O)N[C@H]1CCN(c2cncc(-c3ccccc3)c2)[C@H]1CO[C@H]1CC[C@@H](c2ccccc2)CC1` (relative stereo) [Example 1, N-((CIS)-2-((((CIS)-4-Phenylcyclohexyl)oxy)methyl)-1-(5-phenylpyridin-3-yl)pyrrolidin-3-yl)methanesulfonamide], the EC50 is more than 10 µM and the “% max agonist effect (Emax)” value worked out at 35.7%.

Turning to `Cn1cc(N2CC[C@H](NS(C)(=O)=O)[C@@H]2CO[C@H]2CC[C@@H](c3ccccc3)CC2)cn1` (relative stereo) [Example 2, N-((CIS)-1-(1-methyl-1H-pyrazol-4-yl)-2-((((CIS)-4-phenylcyclohexyl)oxy)methyl)pyrrolidin-3-yl)methanesulfonamide], the EC50 was found to be 0.896 µM and the “% max agonist effect (Emax)” value is reported as 89.7%.

With `CS(=O)(=O)N[C@H]1CCN(c2ccc(C(F)(F)F)cc2)[C@H]1CO[C@H]1CC[C@@H](c2ccccc2)CC1` (relative stereo) [Example 3, N-((CIS)-2-((((CIS)-4-phenylcyclohexyl)oxy)methyl)-1-(4-(trifluoromethyl)phenyl)pyrrolidin-3-yl)methanesulfonamide], the EC50 was more than 10 µM and the “% max agonist effect (Emax)” value was 7.9%.

Regarding `CS(=O)(=O)N[C@H]1CCN(c2cncc3ccccc23)[C@H]1CO[C@H]1CC[C@@H](c2ccccc2)CC1` (relative stereo) [Example 4, N-((CIS)-1-(isoquinolin-4-yl)-2-((((CIS)-4-phenylcyclohexyl)oxy)methyl)pyrrolidin-3-yl)methanesulfonamide], the EC50 is 1.07 µM and the “% max agonist effect (Emax)” value stood at 97.3%.

Consider `Cn1cnc(N2CC[C@H](NS(C)(=O)=O)[C@@H]2CO[C@H]2CC[C@@H](c3ccccc3)CC2)n1` (relative stereo) [Example 5, N-((CIS)-1-(1-methyl-1H-1,2,4-triazol-3-yl)-2-((((CIS)-4-phenylcyclohexyl)oxy)methyl)pyrrolidin-3-yl)methanesulfonamide], for which the EC50 worked out at 5.96 µM and the “% max agonist effect (Emax)” value turned out to be 80.4%.

`COc1ccc(N2CC[C@H](NS(C)(=O)=O)[C@@H]2CO[C@H]2CC[C@@H](c3ccccc3)CC2)cc1` (relative stereo) [Example 6, N-((CIS)-1-(4-methoxyphenyl)-2-((((CIS)-4-phenylcyclohexyl)oxy)methyl)pyrrolidin-3-yl)methanesulfonamide]: the EC50 was 9.22 µM and the “% max agonist effect (Emax)” value is reported as 25.1%.

With `CS(=O)(=O)N[C@H]1CCN(c2cnc3cc[nH]c3c2)[C@H]1CO[C@H]1CC[C@@H](c2ccccc2)CC1` (relative stereo) [Example 7, N-((CIS)-2-((((CIS)-4-phenylcyclohexyl)oxy)methyl)-1-(1H-pyrrolo[3,2-b]pyridin-6-yl)pyrrolidin-3-yl)methanesulfonamide], the EC50 was determined as 0.0905 µM and the “% max agonist effect (Emax)” value was 100.1%.

Turning to `Cn1cc(N2CC[C@H](NS(C)(=O)=O)[C@@H]2CO[C@H]2CC[C@@H](c3ccccc3)CC2)nn1` (relative stereo) [Example 8, N-((CIS)-1-(1-methyl-1H-1,2,3-triazol-4-yl)-2-((((CIS)-4-phenylcyclohexyl)oxy)methyl)pyrrolidin-3-yl)methanesulfonamide], the EC50 stood at 0.152 µM and the “% max agonist effect (Emax)” value amounted to 101.2%.

Regarding `Cc1ncc(N2CC[C@H](NS(C)(=O)=O)[C@@H]2CO[C@H]2CC[C@@H](c3ccccc3)CC2)s1` (relative stereo) [Example 9, N-((CIS)-1-(2-methylthiazol-5-yl)-2-((((CIS)-4-phenylcyclohexyl)oxy)methyl)pyrrolidin-3-yl)methanesulfonamide], the EC50 stood at 1.9 µM and the “% max agonist effect (Emax)” value was 92.1%.

Take `Cc1nnc(N2CC[C@H](NS(C)(=O)=O)[C@@H]2CO[C@H]2CC[C@@H](c3ccccc3)CC2)s1` (relative stereo) [Example 10, N-((CIS)-1-(5-methyl-1,3,4-thiadiazol-2-yl)-2-((((CIS)-4-phenylcyclohexyl)oxy)methyl)pyrrolidin-3-yl)methanesulfonamide]: the EC50 came to 0.242 µM and the “% max agonist effect (Emax)” value was found to be 99.6%.

In the case of `Cc1nc(-c2ccccc2)sc1N1CC[C@H](NS(C)(=O)=O)[C@@H]1CO[C@H]1CC[C@@H](c2ccccc2)CC1` (relative stereo) [Example 11, N-((CIS)-1-(4-methyl-2-phenylthiazol-5-yl)-2-((((CIS)-4-phenylcyclohexyl)oxy)methyl)pyrrolidin-3-yl)methanesulfonamide], the EC50 turned out to be 3.45 µM and the “% max agonist effect (Emax)” value is given as 87.7%.

On to `Cc1nnc(-c2ccc(N3CC[C@H](NS(C)(=O)=O)[C@@H]3CO[C@H]3CC[C@@H](c4ccccc4)CC3)cc2)o1` (relative stereo) [Example 12, N-((CIS)-1-(4-(5-methyl-1,3,4-oxadiazol-2-yl)phenyl)-2-((((CIS)-4-phenylcyclohexyl)oxy)methyl)pyrrolidin-3-yl)methanesulfonamide], for which the EC50 came to 10.5 µM and the “% max agonist effect (Emax)” value is 68.8%.

In the case of `CS(=O)(=O)N[C@H]1CCN(c2csc(-c3ccncc3)n2)[C@H]1CO[C@H]1CC[C@@H](c2ccccc2)CC1` (relative stereo) [Example 13, N-((CIS)-2-((((CIS)-4-phenylcyclohexyl)oxy)methyl)-1-(2-(pyridin-4-yl)thiazol-4-yl)pyrrolidin-3-yl)methanesulfonamide], the EC50 came out at 1.72 µM and the “% max agonist effect (Emax)” value stood at 83.9%.

On to `Cn1cnc(N2CC[C@H](NS(C)(=O)=O)[C@@H]2CO[C@H]2CC[C@@H](c3ccccc3)CC2)n1` [Example 14, N-((2R,3S)-1-(1-Methyl-1H-1,2,4-triazol-3-yl)-2-((((CIS)-4-phenylcyclohexyl)oxy)methyl)-pyrrolidin-3-yl)methanesulfonamide], for which the EC50 worked out at 3.72 µM and the “% max agonist effect (Emax)” value is on record as 87.9%.

`Cn1ncnc1N1CC[C@H](NS(C)(=O)=O)[C@@H]1CO[C@H]1CC[C@@H](c2ccccc2)CC1` [Example 15, N-((2R,3S)-1-(1-methyl-1H-1,2,4-triazol-5-yl)-2-((((CIS)-4-phenylcyclohexyl)oxy)methyl)pyrrolidin-3-yl)methanesulfonamide]: the EC50 is 0.0337 µM and the “% max agonist effect (Emax)” value is 101.6%.

`CS(=O)(=O)N[C@H]1CCN(c2ccccn2)[C@H]1CO[C@H]1CC[C@@H](c2ccccc2)CC1` [Example 16, N-((2R,3S)-2-((((CIS)-4-phenylcyclohexyl)oxy)methyl)-1-(pyridin-2-yl)pyrrolidin-3-yl)methanesulfonamide]: the EC50 was determined as 0.174 µM and the “% max agonist effect (Emax)” value was 101.3%.

As to `CS(=O)(=O)N[C@H]1CCN(c2ccon2)[C@H]1CO[C@H]1CC[C@@H](c2ccccc2)CC1` [Example 17, N-((2R,3S)-1-(isoxazol-3-yl)-2-((((CIS)-4-phenylcyclohexyl)oxy)methyl)pyrrolidin-3-yl)methanesulfonamide], the half-maximal effective concentration (EC50) was 0.102 µM and the “% max agonist effect (Emax)” value amounted to 100.4%.

Regarding `CS(=O)(=O)N[C@H]1CCN(c2ccns2)[C@H]1CO[C@H]1CC[C@@H](c2ccccc2)CC1` [Example 18, N-((2R,3S)-1-(isothiazol-5-yl)-2-((((CIS)-4-phenylcyclohexyl)oxy)methyl)pyrrolidin-3-yl)methanesulfonamide], the EC50 stood at 2.91 µM and the “% max agonist effect (Emax)” value was 87.4%.

Turning to `CS(=O)(=O)N[C@H]1CCN(c2ccsc2)[C@H]1CO[C@H]1CC[C@@H](c2ccccc2)CC1` [Example 19, N-((2R,3S)-2-((((CIS)-4-phenylcyclohexyl)oxy)methyl)-1-(thiophen-3-yl)pyrrolidin-3-yl)methanesulfonamide], the EC50 stood at 0.347 µM and the “% max agonist effect (Emax)” value is 99.8%.

Take `CS(=O)(=O)N[C@H]1CCN(c2cccnc2)[C@H]1CO[C@H]1CC[C@@H](c2ccccc2)CC1` [Example 20, N-((2R,3S)-2-((((CIS)-4-phenylcyclohexyl)oxy)methyl)-1-(pyridin-3-yl)pyrrolidin-3-yl)methanesulfonamide]: the half-maximal effective concentration (EC50) is 0.0204 µM and the “% max agonist effect (Emax)” value stood at 101.0%.
